{
  "source": "patent US20090143368A1",
  "about": "“Use of Cinnamoyl Compound” (priority 2005, published 2009)",
  "data": [
    {"test_system": "transcription regulatory region for a human-derived Type I collagen α2 chain gene", "experiment": "TGF-β-promoted transcription of a Type I collagen gene, COL-Luc luciferase reporter assay", "format": "cell-based", "conditions": "compound final concentration 1 μM; normal human fetal skin fibroblast transfected with COL-Luc; TGF-β added, 40 hours; read-out: Inhibition percentage of the ability of TGF-β to promote transcription of a Type I collagen gene", "experimental": "(§1) 1×10^8 cells of a normal human fetal skin fibroblast (Clontech, catalogue No. CC-2509) were cultured at 37° C. overnight under 5% CO2 atmosphere. After the cultured cells were washed with a sodium phosphate buffer (hereinafter, referred to as PBS) twice, 3 ml of PBS was added thereto and the cells were scraped away the wall of a vessel using a cell scraper (Nalgen, catalogue No. 179693). The scraped cells were collected by centrifugation (1,500 rpm, 4° C., 15 min), and these were suspended in 20 ml of PBS and centrifuged again. To the resulting precipitates were added 11 ml of Solution 2 and 4.8 μl of pronase of DNA Extraction Kit (Stratagene, catalogue No. 200600). After shaken at 60° C. for 1 hour, the resulting mixture was allowed to stand in ice for 10 minutes. Then, 4 ml of Solution 3 of the kit was added to the mixture. After mixed, the mixture was allowed to stand in ice for 5 minutes and then centrifuged (3,000 rpm, 4° C., 15 min) to recover a supernatant. To the recovered supernatant was added 2 μl of RNase per 1 ml of the supernatant and the mixture was allowed to stand at 37° C. for 15 minutes. To the mixture was added 2-fold volume of ethanol. After mixed, a white thread-like substance (genomic DNA) appeared and the substance was recovered. The recovered genomic DNA was washed with 70% ethanol and then air-dried. The air-dried genomic DNA was dissolved in 500 μl of 10 mM Tris-HCl, 1 mM EDTA (pH 8.0) (hereinafter, referred to as TE).\n(§2) The resulting genomic DNA-dissolved solution (genomic DNA 1 μg corresponding amount) was mixed with each 1 μl of an oligonucleotide consisting of a base sequence represented by SEQ ID No.: 1 (SEQ ID No. 1: an oligonucleotide primer designed to amplify a collagen promoter DNA: ccaagctagc gaaattatct tttctttcat ag 32) and an oligonucleotide ([…]) consisting of a base sequence represented by SEQ ID No.:2 (SEQ ID No. 2: an oligonucleotide primer designed to amplify a collagen promoter DNA: ccaaaagctt gcagtcgtgg ccagtacc 28), 29 μl of distilled water, 5 μl of a buffer attached to TaKaRa LA Taq (TAKARA SHUZO Co., Ltd., catalogue No. RR002A), 5 μl of a Mg^2+ solution, 5 μl of a dNTP mixture and 0.5 μl of TaKaRa LA Taq (TAKARA SHUZO Co., Ltd., catalogue No. RR002A). After the resulting mixed solution was incubated at 94° C. for 5 minutes, the mixed solution was subjected to 30 cycles, in which one cycle consists of incubation at 94° C. for 1 minute, at 60° C. for 1 minute and then at 72° C. for 1 minute. The mixed solution was electrophoresed on a 2% agarose gel to recover about 0.5 kb of a DNA. The recovered DNA was treated with phenol/chloroform and then precipitated with ethanol to recover the DNA. The resulting DNA was dissolved in ultrapure water. To this solution were added 2.5 μl of NheI and 2.5 μl of HindIII, and then incubated at 37° C. for 3 hours. Then, the solution was electrophoresed on a 2% agarose gel to recover about 3.5 kb of a DNA. The recovered DNA was precipitated with ethanol to recover again the DNA (hereinafter, referred to as the collagen promoter DNA).\n(§3) On the other hand, the vector pGL3 (Promega, catalogue No. E1751) having the nucleotide sequence encoding firefly luciferase was digested with NheI and HindIII, and then subjected to agarose gel electrophoresis as described above to recover about 5 kb of a DNA. The recovered DNA was precipitated with ethanol to recover the DNA again. To the recovered DNA were added 44 μl of distilled water, 5 μl of Buffer attached to Alkaline Phosphatase (TAKARA SHUZO, catalogue No. 2120A) and 1 μl of Alkaline Phosphatase (TAKARA SHUZO, catalogue No. 2120A). The mixed solution was incubated at 65° C. for 30 minutes. Then, the mixed solution was treated with phenol/chloroform twice, and precipitated with ethanol to recover the DNA (hereinafter referred to as the Luc vector DNA). […]", "units": {"inhibition at 1 µM": "%"}, "values": [
      {"compound": "COCC(=O)Nc1cccc(C=CC(=O)C2=C(O)c3ccccc3S(=O)(=O)N2C)c1", "note": "[(5b), 4-hydroxy-3-[3-[3-(methoxyacetylamino)phenyl]acryloyl]-2-methyl-2H-1,2-benzothiazine-1,1-dioxide]", "inhibition at 1 µM": "≥ 70"},
      {"compound": "COCCNC(=O)c1cccc(C=CC(=O)c2c[nH]c3ccccc3c2=O)c1", "note": "[(23c), 3-[3-[3-[(2-methoxyethyl)aminocarbonyl]phenyl}acryloyl]-4(1H)-quinolinone]", "inhibition at 1 µM": "≥ 70"},
      {"compound": "CN1C(C(=O)C=Cc2cccc(OCCO)c2)=C(O)c2ccccc2S1(=O)=O", "note": "[(16b), 4-hydroxy-3-[3-[3-(2-hydroxyethoxy)phenyl]acryloyl]-2-methyl-2H-1,2-benzothiazine-1,1-dioxide]", "inhibition at 1 µM": "≥ 70"}
    ]},
    {"test_system": "transcription regulatory region for a human-derived Type I collagen α2 chain gene", "experiment": "TGF-β-promoted transcription of a Type I collagen gene, COL-Luc luciferase reporter assay", "format": "cell-based", "conditions": "compound final concentration 3 μM; normal human fetal skin fibroblast transfected with COL-Luc; TGF-β added, 40 hours; read-out: Inhibition percentage of the ability of TGF-β to promote transcription of a Type I collagen gene", "experimental": "as §1, §2, §3", "units": {"inhibition at 3 µM": "%"}, "values": [
      {"compound": "COCCNC(=O)c1cccc(C=CC(=O)c2cn(C)c3ccccc3c2=O)c1", "note": "[(24c), 3-[3-[3-[(2-methoxyethyl)aminocarbonyl]phenyl}acryloyl]-1-methyl-4(1H)-quinolinone]", "inhibition at 3 µM": "≥ 70"},
      {"compound": "COC(=O)CNC(=O)c1cccc(C=CC(=O)c2c(O)c3cccnc3n(C)c2=O)c1", "note": "[(29a), 4-hydroxy-1-methyl-3-[3-[3-[[(methoxycarbonylmethyl)amino]carbonyl]phenyl}acryloyl]-1H-[1,8]naphthyridin-2-one]", "inhibition at 3 µM": "≥ 70"},
      {"compound": "COC(=O)COc1cccc(C=CC(=O)C2=C(O)c3ccccc3S(=O)(=O)N2C)c1", "note": "[(1b), 4-hydroxy-3-[3-[3-[(methoxycarbonyl)methoxy]phenyl]acryloyl]-2-methyl-2H-1,2-benzothiazine-1,1-dioxide]", "inhibition at 3 µM": "≥ 70"},
      {"compound": "COCCNC(=O)c1cccc(C=CC(=O)c2c(O)c3cccnc3n(C)c2=O)c1", "note": "[(32a), 4-hydroxy-1-methyl-3-[3-[3-[(2-methoxyethyl)aminocarbonyl]phenyl}acryloyl]-1H-[1,8]naphthyridin-2-one]", "inhibition at 3 µM": "≥ 70"},
      {"compound": "COC(=O)COc1cccc(C=CC(=O)c2c(O)c3cccnc3n(C)c2=O)c1", "note": "[(36a), 4-hydroxy-1-methyl-3-[3-[3-[(methoxycarbonyl)methoxy]phenyl]acryloyl]-1H-[1,8]naphthyridin-2-one]", "inhibition at 3 µM": "≥ 70"},
      {"compound": "COCCOC(=O)Nc1cccc(C=CC(=O)c2c(O)c3cccnc3n(C)c2=O)c1", "note": "[(42a), 4-hydroxy-1-methyl-3-[3-[3-[(2-methoxyethoxy)carbonylamino]phenyl]acryloyl]-1H-[1,8]naphthyridin-2-one]", "inhibition at 3 µM": "≥ 70"},
      {"compound": "COC(=O)CNC(=O)c1cccc(C=CC(=O)C2=C(O)c3ccccc3S(=O)(=O)N2C)c1", "note": "[(13b), 4-hydroxy-3-[3-[3-[[(methoxycarbonylmethyl)amino]carbonyl]phenyl}acryloyl]-2-methyl-2H-1,2-benzothiazine-1,1-dioxide]", "inhibition at 3 µM": "≥ 70"},
      {"compound": "COCCNC(=O)c1cccc(C=CC(=O)c2c(O)c3cccnc3[nH]c2=O)c1", "note": "[(31a), 4-hydroxy-3-[3-[3-[(2-methoxyethyl)aminocarbonyl]phenyl}acryloyl]-1H-[1,8]naphthyridin-2-one]", "inhibition at 3 µM": "≥ 70"},
      {"compound": "COCC(=O)Nc1cccc(C=CC(=O)c2c(O)c3cccnc3n(C)c2=O)c1", "note": "[(19a), 4-hydroxy-1-methyl-3-[3-[3-(methoxyacetylamino)phenyl]acryloyl]-1H-[1,8]naphthyridin-2-one]", "inhibition at 3 µM": "≥ 70"},
      {"compound": "COCCNC(=O)c1cccc(C=CC(=O)C2=C(O)c3ccccc3S(=O)(=O)N2C)c1", "note": "[(10b), 4-hydroxy-3-[3-[3-[(2-methoxyethyl)aminocarbonyl]phenyl}acryloyl]-2-methyl-2H-1,2-benzothiazine-1,1-dioxide]", "inhibition at 3 µM": "≥ 70"},
      {"compound": "Cn1c(=O)c(C(=O)C=Cc2cccc(OCCO)c2)c(O)c2cccnc21", "note": "[(40a), 4-hydroxy-1-methyl-3-[3-[3-(2-hydroxyethoxy)phenyl]acryloyl]-1H-[1,8]naphthyridin-2-one]", "inhibition at 3 µM": "≥ 70"}
    ]},
    {"test_system": "transcription regulatory region for a human-derived Type I collagen α2 chain gene", "experiment": "TGF-β-promoted transcription of a Type I collagen gene, COL-Luc luciferase reporter assay", "format": "cell-based", "conditions": "compound final concentration 10 μM; normal human fetal skin fibroblast transfected with COL-Luc; TGF-β added, 40 hours; read-out: Inhibition percentage of the ability of TGF-β to promote transcription of a Type I collagen gene", "experimental": "as §1, §2, §3", "units": {"inhibition at 10 µM": "%"}, "values": [
      {"compound": "COCCNC(=O)c1cccc(/C=C/C(=O)c2c(O)c3cccnc3n(C)c2=O)n1", "note": "[(124a), 4-hydroxy-1-methyl-3-[3-[6-(2-methoxyethyl)aminocarbonyl-2-pyridinyl]acryloyl]-1H-[1,8]naphthyridin-2-one]", "inhibition at 10 µM": "≥ 70"},
      {"compound": "Cc1ccc(C(=O)/C=C/c2cccc(OCCO)c2)c(=O)[nH]1", "note": "[(16c), 3-[3-[3-(2-hydroxyethoxy)phenyl]-1-oxo-2-propenyl]-6-methyl-2(1H)-pyridinone]", "inhibition at 10 µM": "≥ 70"},
      {"compound": "COCC(=O)Nc1ccc(C=CC(=O)c2c(O)c3cccnc3n(C)c2=O)cc1", "note": "[(20a), 4-hydroxy-1-methyl-3-[3-[4-(methoxyacetylamino)phenyl]acryloyl]-1H-[1,8]naphthyridin-2-one]", "inhibition at 10 µM": "≥ 70"},
      {"compound": "CN(C)CCOc1cccc(C=CC(=O)c2c(O)c3cccnc3n(C)c2=O)c1", "note": "[(56a), 4-hydroxy-1-methyl-3-[3-[3-(2-dimethylaminoethoxy)phenyl]acryloyl]-1H-[1,8]naphthyridin-2-one]", "inhibition at 10 µM": "≥ 70"},
      {"compound": "COC(=O)COc1cccc(C=CC(=O)c2ccc(C)[nH]c2=O)c1", "note": "[(11c), 3-[3-[3-[(methoxycarbonyl)methoxy]phenyl]-1-oxo-2-propenyl]-6-methyl-2(1H)-pyridinone]", "inhibition at 10 µM": "≥ 70"}
    ]}
  ]
}
